The results in this text go back to patent US20240368552A1, “PRE-EPICARDIAL CELLS AND USES THEREOF” (The General Hospital Corporation, priority 2021, published 2024).

What all share (assay type): cell-based, human
The test system of experiment [1] is hiPSC-derived CMs. As to the kind of experiment: Differentiation of ventricular-like CM population with BMS-189453. The note with it: day 30, treated 96 h starting at day 3, vs control. The protocol:
(§1) Quantitative PCR. Cells were lysed with RT buffer and total RNA was purified using RNeasy® Plus Mini kit (Qiagen, Hilden, Germany) which was reverse transcribed to cDNA using Superscript IV VILO Master Mix (Gibco, Grand Island, NY) and ran on Bio-rad T100™ Thermal Cycler according to manufacturer's protocol. Quantitative PCR was performed on StepOnePlus Real-time PCR system (Applied Biosystems, Foster City, CA) after mixing cDNA with Taqman Gene Expression Master Mix (Cat #: 4369016) and gene Taqman probe (Applied Biosystems, Foster City, CA) which can be found in Table 1. All gene expressions were normalized to housekeeping gene beta-actin and presented as log 2fold change (delta-delta CT).
Differentiation of Ventricular-like CM population. Human iPS cells were maintained and differentiated to LPM with Stemolecule™ CHIR99021 for 48 h. BMS-189453 (1-2 μM, Sigma Aldrich, St. Louis, MO) was supplemented together with Stemolecule™ Wnt inhibitor IWP-4 (Stemgent, San Diego, CA) in RPMI-INS for 48 h starting day 3. Then, BMS-189453 treatment was continued after additional 48 h after withdrawal of Stemolecule™ Wnt inhibitor IWP-4 in RPMI-INS until day 9. Culture medium was then switched to RPMI supplemented with insulin containing B27 to further maintain the differentiated ventricular myocytes until use.

Experiment [2] deals with IGF2. Description: Inhibition of RA signaling in PEC in transwell (IGF2 qPCR). To be noted: 5 μM, 6 days, vs control without BMS. The protocol: as §1
Inhibition of RA signaling in PEC in Transwell: PECs were seeded at 2.5×10^5 cells/well in 24 well-plate while 2.5×10^5 cells VM were cultured in the transwell insert. Both cells were cultured using PECM:RPMI-INS medium, with […] (5 μM) only present in lower compartment with PECs, for 6 days. IGF2 RNA was harvested from PECs for qPCR analysis.
Background: Quantitative PCR measures a nucleic acid by following its amplification.

For experiment [3], the system named is hiPSCs (BJR-iPS cells). Description: Lateral plate mesoderm (LPM) induction from hiPSCs with CHIR, flow cytometry and RT-PCR. As to the method: HiPSC culture, maintenance and differentiation. Human BJR-iPS cells (hiPSCs) were obtained from Harvard Stem Cell Institute, and maintained in MTeSR medium (STEMCELL Technologies). hiPSCs were passaged with ReleaSR (STEMCELL Technologies, Cambridge, MA) and plated at 1:20 ratio every 7 days onto […] pre-coated with growth factor reduced (GFR)-Matrigel (Corning, Tewksbury, MA). Briefly, hiPSCs were seeded at 200,000 cells/cm^2 onto a GFR-Matrigel-coated plate and maintained in MTeSR medium for 4-5 days. To generate the lateral plate mesoderm (LPM), the cells were treated with 12 μM Stemolecule™ CHIR99021 (Stemgent, San Diego, CA) in differentiation basal medium consisting of RPMI medium supplemented with B27 without insulin (Gibco, Grand Island, NY) (RPMI-INS,) for 48 h. Then, the medium was replaced with RPMI-INS for 24 h. Next, the culture was incubated with 5 μM of Stemolecule™ Wnt inhibitor IWP-4 (Stemgent, San Diego, CA) in RPMI-INS for 48 hr before switching it back to RPMI-INS, for additional 48 hr. After that, the medium was changed to RPMI medium supplemented with insulin-containing B27, and refreshed every 2 days for long term maintenance. For PEC differentiation, LPM cells at day 3 were treated with RPMI-INS supplemented 50 ng/ml bone morphogenic protein (BMP) 4 (PeproTech, Rocky Hill, NJ), 5 ng/ml vascular endothelial growth factor (VEGF; PeproTech, Rocky Hill, NJ) and 4 μM retinoic acid (RA; Stemgent, San Diego, CA) in RPMI-INS and changed every 2 days for 96 hr. PECs were dissociated using collagenase I (Sigma Aldrich, St. Louis, MO) and 1×TrypLE Express Enzyme (Gibco, Grand Island, NY), and maintained in complete PEC medium (PECM) consisted of DMEM/F12 supplemented with 1×insulin-selenium-transferrin (ITS; Gibco, Grand Island, NY), 5 ng/ml VEGF (PeproTech, Rocky Hill, NJ), 10 μM retinol, 4 μM RA (Stemgent, San Diego, CA) and 60 μg/ml ascorbic acid (Sigma). For plating, 1 μM of ROCK inhibitor Y-27632 dihydrochloride (Tocris Bioscience, Bristol, UK) was added for 24 h to facilitate cell attachment, after which medium was switched to PECM. For PEC maintenance, differentiated PEC were passaged and seeded at 10,000/well of 24 well-plate and maintained using SB medium consisted of DMEM/F12 supplemented with 0.4 mg/ml of Albumax (Gibco, Grand Island, NY), 1×ITS (Gibco, Grand Island, NY), 60 μg/ml ascorbic acid (Sigma Aldrich, St. Louis, MO), with 2 μM TGFβ inhibitor SB431542 (Tocris Bioscience, Bristol, UK). […]
Quantitative PCR. […] Quantitative PCR was performed on StepOnePlus Real-time PCR system (Applied Biosystems, Foster City, CA) after mixing cDNA with Taqman Gene Expression Master Mix (Cat #: 4369016) and gene Taqman probe (Applied Biosystems, Foster City, CA) which can be found in Table 1. […]

The subject of experiment [4] is ventricular-CMs. As to the kind of experiment: IGF signaling in PEC-induced ventricular-CM proliferation (IGF1R inhibition assay, IGF2 dose-response).
The test system of experiment [5] is PECs. Description: Stimulation of epithelial-mesenchymal transition in PECs. The note with it: for PECs CD90 positive: 6 days treatment, flow cytometry; for PEC phenotype (ZO1, WT1, morphology): immunofluorescence, extended culture / 6 days. The protocol: Stimulation of epithelial-mesenchymal transition in PECs. Day 7 PECs were seeded at 100,000 cells/well on 24-well-plate pre-coated with 0.1% gelatin, and allowed to attach overnight in basal medium (BM) consisted of DMEM/F12 supplemented with […] of Albumax (Gibco, Grand Island, NY), 1×ITS (Gibco, Grand Island, NY), 60 μg/ml ascorbic acid (Sigma Aldrich, St. Louis, MO). 1 μM of ROCK inhibitor Y27632 (Tocris Bioscience, Bristol, UK) was added to facilitate PEC attachment for 24 h. Then, PECs were expanded to full confluency in the BM with 2 μM SB431542 (Stemgent, San Diego, CA) but without AlbuMAX II (Gibco, Grand Island, NY), for 3-4 days. EMT were initiated by adding 5 ng/ml TGFβ (R&D system, Minneapolis, MN) for the initial 3 days and 10 ng/ml bFGF (PeproTech, Rocky Hill, NJ) for the subsequent 3 days or just bFGF alone, up to 6 days. Controls were epicardial cells in basal medium or with addition of 2 μM SB431542 (Stemgent, San Diego, CA).
as §1
Flow cytometry. Cells were dissociated using trypsin, pelleted by centrifugation at 300 g for 5 min, and fixed with Fixation/Permeabilization Solution Kit according to manufacturer's protocol (BD Biosciences, San Diego, CA). Cells were washed with 2 times of 10% BD Perm/Wash Buffer (BD Biosciences, San Diego, CA) to remove fixative prior to staining. Samples were incubated with primary antibody diluted in BD Perm/Wash Buffer at 4° C. for 45 min. To remove excessive primary antibody, samples were spun at 250 g for 5 min and washed once with Perm/Wash buffer prior to labelling with Alexa Fluor 488 secondary antibody (Molecular Probes Eugene, OR) at 1:500 for 30 min. All samples were washed once with BD Perm/Wash Buffer prior to analysis with BD Accuri, BD FACS LSR Flow Cytometer (BD Biosciences, San Diego, CA) or NovoCyte Flow Cytometer (ACEA Biosciences, San Diego, CA). All flow cytometric analyses were performed using FlowJo 10.5.0 software.
Immunofluorescence labelling and microscopy (cells, spheres, aggregates). Cultured cells were fixed with cold methanol at 4° C. for 15 min, and then washed with PBS. CM-spheres, PEC-Spheres, and cardiac aggregates were fixed overnight with 4% paraformaldehyde, embedded in Histogel™ (Thermo Scientific, Kalamazoo, MI), dehydrated, and embedded in paraffin. Sections were cut at 5 μm, deparaffinized, and treated with a heat-mediated antigen retrieval technique that included a 20-min boilin 0.01 M citrate buffer (pH 7.0). Both cells and histological sections were labelled with primary antibodies (Table 1) overnight at 4° C. Donkey anti rabbit AlexaFluor 488 and donkey anti-mouse AlexaFluor 546 and 647 (Molecular Probes Eugene, OR) were used as secondary antibodies at 1:500 and nuclei were counterstained with DAPI (Sigma Aldrich, St. Louis, MO). All labelled cells were visualized using Nikon Eclipse Ti fluorescence microscope (Nikon Instruments, Melville, NY), and processed with NIS element imaging software or ImageJ.
A general note: A flow cytometer gives signals particle by particle.

Where [6] appears, read: 48 h CHIR treatment, day 3, RT-PCR vs hiPSC.
Setting [7] is: day 3, 48 h CHIR treatment, flow cytometry.
[8] abbreviates: 6 days, RT-PCR vs SB-treated PECs.

Turning to `CC1(C)CC=C(c2ccccc2)c2cc(/C=C/c3ccc(C(=O)O)cc3)ccc21` [BMS, BMS189453], the “ventricular genes MYH7 and MYL2 expression” value in experiment [1] was “significantly upregulated”. Further, in experiment [2], the “IGF2 expression in co-cultured PECs” value was “significantly reduced”.
In the case of `Cc1c[nH]c(-c2cnc(NCCNc3ccc(C#N)cn3)nc2-c2ccc(Cl)cc2Cl)n1` [CHIR, CHIR99021], in experiment [3] (setting [6]), the “pluripotency markers (OCT3/4, SOX2, NANOG) expression” value is “significant downregulation”; the “primitive streak, lateral plate mesoderm and cardiac progenitor marker expression” value is listed as “significant upregulation”. Moreover, in experiment [3] (setting [7]), the “LPM progenitors expressing KDR” value is given as 88.0±3.6% and the “LPM progenitors expressing PDGFRA” value is on record as 73.7±4.3%.
As to `C[C@]1(O)C[C@@H](c2nc(-c3ccc4ccc(-c5ccccc5)nc4c3)c3c(N)nccn32)C1` [Linsitinib], the “cTnT+ EdU+ CMs” value in experiment [4] (treated with 1 μM, 3 days, PEC coculture) is listed as 7.0±0.4%.
For `NC(=O)c1ccc(-c2nc(-c3ccc4c(c3)OCO4)c(-c3ccccn3)[nH]2)cc1` [SB, SB431542], in experiment [5], the “PECs CD90 positive” value worked out at 1.1±0.1% and the “PEC phenotype (ZO1, WT1, morphology)” value was “maintain the cuboidal epithelial phenotype with defined ZO1 expression”.
Regarding “IGF2: IGF2 protein added to ventricular CMs”, in experiment [4] (IGF2 addition, dose-response), the “cTnT+ EdU+ CMs” value is recorded as “significantly increased”.
For TGFβ, in experiment [5], the “PECs CD90 positive” value was determined as 28.7±3.5%; the “PEC phenotype (ZO1, WT1, morphology)” value was “ZO1 disarrangement, cell and nucleus enlargement, and WT1-expression loss”. The “ACTA2, DDR2 and POSTN expression” value in experiment [5] (setting [8]) is on record as “significant increases”.
Consider “bFGF: bFGF growth factor (PeproTech), 10 ng/ml”, for which, in experiment [5], the “PECs CD90 positive” value is 95.3±0.7%; the “PEC phenotype (ZO1, WT1, morphology)” value was “ZO1 disarrangement, cell and nucleus enlargement, and WT1-expression loss”. Further, in experiment [5] (setting [8]), the “ACTA2, DDR2 and POSTN expression” value is “significant increases”; the SNAI1 expression entry is “upregulation”; the “fibroblast markers TCF21 and VIM expression” value is on record as “significant upregulation”.
